Results taken from PubChem BioAssay (NCI).
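All cell lines were grown in 96-well plates and treated with compound for 48 hours. GI50 marks 50% less growth. TGI denotes the concentration required for complete inhibition of growth.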

Experiments:
Experiment in all cases: NCI-60 cell line screen, 48 h
[1] = test system: T-47D breast
[2] = test system: HCT-116 colon
[3] = test system: HCC-2998 colon
[4] = test system: K-562 leukemia
[5] = test system: COLO 205 colon
[6] = test system: NCI-H23 lung
[7] = test system: OVCAR-5 ovarian
[8] = test system: MOLT-4 leukemia
[9] = test system: DU-145 prostate
[10] = test system: BT-549 breast
[11] = test system: OVCAR-4 ovarian
[12] = test system: SN12C renal
[13] = test system: MDA-MB-231 breast
[14] = test system: MDA-MB-435
[15] = test system: A498 renal
[16] = test system: NCI-H226 lung
[17] = test system: HL-60(TB) leukemia
[18] = test system: KM12 colon
[19] = test system: U251 CNS
[20] = test system: TK-10 renal
[21] = test system: CAKI-1 renal
[22] = test system: HT29 colon
[23] = test system: OVCAR-8 ovarian
[24] = test system: HOP-92 NSCLC
[25] = test system: RXF 393 renal
[26] = test system: SF-295 CNS
[27] = test system: M14 melanoma
[28] = test system: CCRF-CEM leukemia
[29] = test system: PC-3 prostate
[30] = test system: SK-MEL-28 melanoma
[31] = test system: EKVX NSCLC
[32] = test system: SW-620 colon
[33] = test system: SK-MEL-2 melanoma
[34] = test system: UACC-257 melanoma
[35] = test system: ACHN renal
[36] = test system: UO-31 renal
[37] = test system: LOX IMVI melanoma
[38] = test system: SNB-75 CNS
[39] = test system: HS 578T breast
[40] = test system: SK-MEL-5 melanoma
[41] = test system: RPMI-8226 leukemia
[42] = test system: HCT-15 colon
[43] = test system: OVCAR-3 ovarian
[44] = test system: UACC-62 melanoma
[45] = test system: MCF7 breast
[46] = test system: A549 NSCLC
[47] = test system: SR leukemia
[48] = test system: SF-268 CNS
[49] = test system: SK-OV-3 ovarian
[50] = test system: NCI/ADR-RES ovarian
[51] = test system: SNB-19 CNS
[52] = test system: NCI-H460 lung
[53] = test system: NCI-H522 lung
[54] = test system: IGROV1 ovarian
[55] = test system: SF-539 CNS
[56] = test system: MALME-3M melanoma
[57] = test system: 786-0 renal
[58] = test system: HOP-62 NSCLC

SMILES: COc1ccc2[nH]c3c4[nH]c5ccc(OC)cc5c4c4c(c3c2c1)C(=O)NC4=O
- GI50 [1]: > 25 µM
- TGI [1]: > 25 µM
- GI50 [2]: > 11 µM
- TGI [2]: > 25 µM
- GI50 [3]: > 25 µM
- TGI [3]: > 25 µM
- GI50 [4]: > 6.63 µM
- TGI [4]: > 25 µM
- GI50 [5]: > 25 µM
- TGI [5]: > 25 µM
- GI50 [6]: > 14.4 µM
- TGI [6]: > 25 µM
- GI50 [7]: > 25 µM
- TGI [7]: > 25 µM
- GI50 [8]: > 10.3 µM
- TGI [8]: > 25 µM
- GI50 [9]: > 15.1 µM
- TGI [9]: > 25 µM
- GI50 [10]: > 9.4 µM
- TGI [10]: > 25 µM
- GI50 [11]: > 25 µM
- TGI [11]: > 25 µM
- GI50 [12]: 1.19 µM
- TGI [12]: > 25 µM
- GI50 [13]: > 25 µM
- TGI [13]: > 25 µM
- GI50 [14]: > 12.6 µM
- TGI [14]: > 25 µM
- GI50 [15]: 7.36 µM
- TGI [15]: > 25 µM
- GI50 [16]: > 25 µM
- TGI [16]: > 25 µM
- GI50 [17]: > 21.1 µM
- TGI [17]: > 25 µM
- GI50 [18]: 1.76 µM
- TGI [18]: > 25 µM
- GI50 [19]: > 8.42 µM
- TGI [19]: > 25 µM
- GI50 [20]: > 7.63 µM
- TGI [20]: > 25 µM
- GI50 [21]: 1.77 µM
- TGI [21]: > 25 µM
- GI50 [22]: > 25 µM
- TGI [22]: > 25 µM
- GI50 [23]: > 13.2 µM
- TGI [23]: > 25 µM
- GI50 [24]: > 25 µM
- TGI [24]: > 25 µM
- TGI [25]: > 15.4 µM
- GI50 [26]: > 15.7 µM
- TGI [26]: > 25 µM
- GI50 [27]: > 13.1 µM
- TGI [27]: > 25 µM
- GI50 [28]: 0.757 µM
- TGI [28]: > 25 µM
- GI50 [29]: > 15.7 µM
- TGI [29]: > 25 µM
- GI50 [30]: > 25 µM
- TGI [30]: > 25 µM
- GI50 [31]: > 25 µM
- TGI [31]: > 25 µM
- GI50 [32]: > 25 µM
- TGI [32]: > 25 µM
- GI50 [33]: 12.2 µM
- TGI [33]: > 25 µM
- GI50 [34]: > 25 µM
- TGI [34]: > 25 µM
- GI50 [35]: > 6.71 µM
- TGI [35]: > 25 µM
- GI50 [36]: 0.654 µM
- TGI [36]: > 25 µM
- GI50 [37]: > 13.1 µM
- TGI [37]: > 25 µM
- GI50 [38]: > 13.2 µM
- TGI [38]: > 25 µM
- GI50 [39]: 1.35 µM
- TGI [39]: > 25 µM
- GI50 [40]: > 22 µM
- TGI [40]: > 25 µM
- GI50 [41]: 0.998 µM
- TGI [41]: > 25 µM
- GI50 [42]: > 14.3 µM
- TGI [42]: > 25 µM
- GI50 [43]: > 11.2 µM
- TGI [43]: > 25 µM
- GI50 [44]: > 25 µM
- TGI [44]: > 25 µM
- GI50 [45]: > 25 µM
- TGI [45]: > 25 µM
- GI50 [46]: > 9.75 µM
- TGI [46]: > 25 µM
- GI50 [47]: 1.29 µM
- TGI [47]: > 25 µM
- GI50 [48]: > 22 µM
- TGI [48]: > 25 µM
- GI50 [49]: > 25 µM
- TGI [49]: > 25 µM
- GI50 [50]: > 25 µM
- TGI [50]: > 25 µM
- GI50 [51]: > 25 µM
- TGI [51]: > 25 µM
- GI50 [52]: > 10.3 µM
- TGI [52]: > 25 µM
- GI50 [53]: 2.32 µM
- TGI [53]: > 25 µM
- GI50 [54]: > 25 µM
- TGI [54]: > 25 µM
- GI50 [55]: 1.31 µM
- TGI [55]: > 17 µM
- GI50 [56]: 12.4 µM
- TGI [56]: > 25 µM
- GI50 [57]: > 12.9 µM
- TGI [57]: > 25 µM
- GI50 [58]: > 25 µM
- TGI [58]: > 25 µM
